Assay results published in US20240174684A1, “INHIBITORS OF cGAS ACTIVITY AS THERAPEUTIC AGENTS” (BELLBROOK LABS, LLC, priority 2021, published 2024).
Read-outs that look alike come from different tables or passages of the source.

Columns and labels:
[1] = Pharmacokinetics in C57BL/6 female mice, IV and PO; format: in vivo; details: plasma; for AUC: read-out: AUC0-tidc
Description: The pharmacokinetic characteristics of Compound 5 (BBL-100455) were estimated in C57BL/6 female mice following intravenous (IV) bolus and oral (PO) administration.
In short, the compound of the disclosure at 0.6 mg/mL in PBS containing 5% MSO and 25% PEG-400 was administered by IV injection (3 mg/kg). For PO (30 mg/kg), the compound of the disclosure at 3 mg/mL in PBS containing 10% MSO and 50% PEG-400 was orally administered. At the given time points (0.083 h, 0.167 h, 0.25 h, 0.50 h 1 h, 2 h, 4 h, 7 h, 16 h and 24 h), blood samples were collected using heparinized calibrated pipettes. Samples were centrifuged at 15000 rpm for 10 min. Subsequently, blood plasma was collected from the upper layer. The plasma was frozen at −80° C. for later analysis. At 2 h. 7 h and 24 h, brain samples were collected and immediately stored at […] for later analysis.
The analytical curve was constructed using ten non-zero standards with Compound 5 (BBL-100455) concentration ranging from 1 to 2500 ng/ml in the blank plasma and brain tissue. A blank sample (matrix sample processed without internal standard) was used to exclude contamination. The linear regression analysis of BBL- 100455 was performed by plotting the peak area ratio (y) against the BBL-100455 concentrations (x) in ng/ml.
The individual and average compound 5 concentration-time data for IV and PO dosed groups are presented in FIG. 4 for plasma concentration. All PK parameters were estimated using non-compartmental analyses with Phoenix/WINONLIN.

[2] = system: IFN-β production in PBMCs; experiment: IFNβ ELISA in human primary PBMCs; format: cell-based; details: PBMC
How it was run: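 Human primary PBMCs stimulated with dsDNA or cGAMP to trigger a cGAS/STING-dependent type I IFN response. Secreted IFNβ quantified by ELISA across a dose response to derive IC50 values.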

[3] = molecular target: mouse cGAS (Mus musculus, UniProt Q8C6L5); experiment: Transcreener cGAS enzymatic assay with mouse cGAS; format: biochemical; details: standard conditions, read-out: IC50 with mcGAS
Sequence of mouse cGAS (Q8C6L5 whole entry): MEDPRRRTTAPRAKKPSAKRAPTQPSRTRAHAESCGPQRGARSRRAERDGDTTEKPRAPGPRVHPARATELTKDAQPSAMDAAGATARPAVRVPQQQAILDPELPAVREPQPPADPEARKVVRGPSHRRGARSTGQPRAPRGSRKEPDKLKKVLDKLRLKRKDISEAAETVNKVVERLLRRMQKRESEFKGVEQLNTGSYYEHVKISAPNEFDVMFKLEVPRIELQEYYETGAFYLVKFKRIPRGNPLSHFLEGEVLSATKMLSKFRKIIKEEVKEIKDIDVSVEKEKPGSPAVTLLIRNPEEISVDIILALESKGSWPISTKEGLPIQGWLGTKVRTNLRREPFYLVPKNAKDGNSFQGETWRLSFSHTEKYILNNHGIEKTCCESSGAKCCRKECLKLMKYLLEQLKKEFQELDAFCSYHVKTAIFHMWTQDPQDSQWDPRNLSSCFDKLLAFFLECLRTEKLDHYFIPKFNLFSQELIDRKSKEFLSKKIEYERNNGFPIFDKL
Description: Structural, biochemical and biophysical analysis and selectivity profiling: Potency and MOA studies, including Mn^2+ sensitivity, were performed using the Transcreener cGAS enzymatic assay, which is manufactured at BellBrook Labs (Fitchburg, Wisconsin, USA). This homogenous cGAS enzymatic assay was developed with fluorescence polarization (FP) and time-resolved Forster resonance energy transfer (TR-FRET) readouts, as described in International Patent Publication WO 2020/142729, incorporated by reference herein in its entirety. Plates are read on a PHERAstar FSX multimode reader (BMG). The compounds of the disclosure were tested for inhibition of cGAS ([…]) using this cGAS enzymatic assay under standard conditions (100 μM ATP and GTP, 62.5 nM bp ISD, 60 minute reactions), high ATP and GTP (1 mM) to mimic physiological conditions, in the presence of 200 μM MnCl2, and with mouse cGAS under standard conditions.
Potency with mcGAS is important for vivo efficacy studies and represents a challenge for lead development because mcGAS shares only 57% amino acid identity with human enzyme and there are significant functional differences.

[4] = Metabolic stability in human hepatocytes; format: in vitro ADME; details: read-out: Human MS Stability t1/2
Description: ADME studies: Compound A and the compounds of the disclosure were tested for aqueous solubility (KSOL), metabolic stability (human and mouse […]) and permeability (Caco-2 and/or MDR1-MDCK cells) to provide an initial indication of oral bioavailability.
The favorable physicochemical properties are reflected in promising results in in vitro ADME tests. […] Metabolic stability, which was routinely measured with mouse and human hepatocytes, is outstanding, with t, greater than 2 hours for all of the compounds of the disclosure in which it has been measured. Cell permeability was measured using MDCK cells expressing human MDR1 (P-glycoprotein) to assess passive permeability as well as active transport out of the cell. […] Numerous compounds in Table 1 meet these permeability criteria, which is consistent with their design for TPSA <140 Å^2 and increased lipophilicity.
The MDCK-MDR1 permeability A ->B is shown in Table 2 below, where A represents 5-10 cm/s×10^−6; B represents 1-5 cm/s×10^−6; and C represents <1 cm/ss×10^−6. The metabolic stability half time, in both mouse and human hepatocytes, is also shown in Table 2 below, where A′ represents 100-200 minutes; B′ represents 200-300 minutes; and C′ represents >300 minutes.

[5] = mouse, IV 3 mg/kg, C57BL/6 female mice
[6] = mouse, PO 30 mg/kg, C57BL/6 female mice

Work on `Cc1nc(N2C[C@@H](CC(=O)Nc3ccc(-c4ccccc4)cc3)C[C@H]2C(=O)O)c2oc3ccccc3c2n1` [Compound 5, (2S,4R)-4-(2-([1,1′-biphenyl]-4-ylamino)-2-oxoethyl)-1-(2-methylbenzofuro[3,2-d]pyrimidin-4-yl)pyrrolidine-2-carboxylic acid] yielded a Vss ([1]; IV 3 mg/kg, C57BL/6 female mice) of 0.853 L/kg, a bioavailability ([1]; female, C57BL/6, mouse, PO 30 mg/kg vs IV 3 mg/kg, bioavailability) of 29.3% and an AUC(0-inf) [1, 5] of 4860 ng·h/mL. The clearance [1, 5] was 10.3 mL/min/kg, the half-life [1, 5] was 2.3 h and the AUC [1, 5] was 4630 ng·h/mL. The AUC(0-inf) [1, 6] was 13600 ng·h/mL, the CL/F [1, 6] was 36.8 mL/min/kg and the Cmax [1, 6] was 2870 ng/mL. It also gave a Tmax [1, 6] of 0.5 h, a half-life [1, 6] of 2.25 h and an AUC [1, 6] of 13600 ng·h/mL. It also gave an IC50 [2] of 1 to 2.5 µM, an IC50 [3] of 4.23 µM and a half-life [4] of 1.67 to 3.33 h.
